In patent publication US8450522B2, “Conformationally constrained carboxylic acid derivatives useful for treating metabolic disorders” (Amgen Inc., priority 2008, dated 2013):

Molecular target: GPR40 (Homo sapiens, UniProt O14842)
Test: Cell-based aequorin assay (CHO cells stably transfected with GPR40 and aequorin)
Design: expressed in transfected cells
Details: activation of human GPR40, CHO cells, 0.01% HSA
Protocol: Briefly, the Aequorin assays were performed on doubly stable CHO cells expressing GPR40 and Aequorin DNA. […] The luminescence was recorded over a period of 20 seconds with a Microlumat luminometer (Berthold).
Cell-based aequorin assays were employed to characterize the modulatory activity of compounds on the GPR40 signaling pathway. In an exemplary assay, CHO cells were stably transfected with both GPR40 and Aequorin (Euroscreen). Cells were detached from the tissue culture dish with 2 mL of trypsin (0.25% (w/v)). Trypsinization was halted with 28 mL of Hanks Buffered Salt Solution containing 20 mM Hepes (H/HBSS) and 0.01% fatty acid-free human serum albumin (HSA). Coelantrazine is added to 1 ug/mL, and the cells were incubated for 2 hours at room temperature. Compounds were dissolved in DMSO for preparation of 10 mM stock solutions. Compounds were diluted in H/HBSS containing 0.01% HSA. Serial dilutions of the test compounds were prepared to determine dose response.
Aequorin luminescence measurements were made using an EG&G Berthold 96-well luminometer, and the response was measured over a 20 second interval after cells and compounds were mixed. The maximum relative light units was plotted to determine dose response. The EC50 (effective concentration to reach 50% maximal response) was determined from the dose response plot.

Chain of GPR40 (O14842 whole entry): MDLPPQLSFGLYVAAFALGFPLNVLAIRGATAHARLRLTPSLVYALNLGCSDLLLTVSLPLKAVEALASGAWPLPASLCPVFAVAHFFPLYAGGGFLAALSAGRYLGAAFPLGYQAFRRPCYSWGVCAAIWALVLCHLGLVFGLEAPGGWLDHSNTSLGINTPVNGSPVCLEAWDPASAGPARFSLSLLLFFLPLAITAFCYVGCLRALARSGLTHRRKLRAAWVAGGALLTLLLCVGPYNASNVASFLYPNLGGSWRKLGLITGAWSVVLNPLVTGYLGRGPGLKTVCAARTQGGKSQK

| SMILES | EC50 [nM] |
| --- | --- |
| COc1cc(-c2ccc(COc3ccc4c(c3)[C@H](CC(=O)O)CCC4)cc2[C@H]2CCCC2(C)C)c(F)cn1 (single isomer, unassigned) [Example 47] | 1000 to 10000 |
| COc1cccc(-c2ccc(COc3ccc4c(c3)[C@@H](CC(=O)O)CC4)cc2C(C)(C)C)c1 (single isomer, unassigned) [Example 25, ((1R)-6-(((2-(1,1-Dimethylethyl)-3′-(methyloxy)-1,1′-biphenyl-4-yl)methyl)oxy)-2,3-dihydro-1H-inden-1-yl)acetic acid or ((1S)-6-(((2-(1,1-dimethylethyl)-3′-(methyloxy)-1,1′-biphenyl-4-yl)methyl)oxy)-2,3-dihydro-1H-inden-1-yl)acetic acid] | 1000 to 10000 |
| COc1cc(-c2ccc(COc3ccc4c(c3F)C(C)(CC(=O)O)CC4)cc2C(OC)C(C)(C)C)c(F)cn1 [Example 41, {(S)-7-Fluoro-6-[4-(5-fluoro-2-methoxy-pyridin-4-yl)-3-((S)-1-methoxy-2,2-dimethyl-propyl)-benzyloxy]-1-methyl-indan-1-yl}-acetic acid or stereoisomer thereof] | 1000 to 10000 |
| COc1ccc(F)c(-c2ccc(COc3ccc4c(c3)CC[C@@H]4CC(=O)O)cc2C(C)(C)C)c1 (single isomer, unassigned) [Example 5, (R)-Methyl 2-(5-(3-t-butyl-4-(2-fluoro-5-methoxyphenyl)benzyloxy)-2,3-dihydro-1H-inden-1-yl)acetic acid or (S)-methyl 2-(5-(3-t-butyl-4-(2-fluoro-5-methoxyphenyl)benzyloxy)-2,3-dihydro-1H-inden-1-yl)acetic acid] | 1000 to 10000 |

Results, then the compound that gave them:

| EC50 [nM] | SMILES |
| --- | --- |
| 100 to 1000 | COc1ccc(F)c(-c2ccc(COc3ccc4c(c3)[C@@H](C(C)(C)C(=O)O)CC4)cc2C(C)(C)C)c1 (single isomer, unassigned) [Example 12, 2-((1S)-6-(((2-(1,1-Dimethylethyl)-2′-fluoro-5′-(methyloxy)-1,1′-biphenyl-4-yl)methyl)oxy)-2,3-dihydro-1H-inden-1-yl)-2-methylpropanoic acid or 2-((1R)-6-(((2-(1,1-Dimethylethyl)-2′-fluoro-5′-(methyloxy)-1,1′-biphenyl-4-yl)methyl)oxy)-2,3-dihydro-1H-inden-1-yl)-2-methylpropanoic acid] |
| 1000 to 10000 | COc1ccc(F)c(-c2ccc(COc3ccc4c(c3)[C@@H](CC(=O)O)C(C)(C)C4)cc2C(C)(C)C)c1 (single isomer, unassigned) [Example 8, ((1S)-6-(((2-(1,1-Dimethylethyl)-2′-fluoro-5′-(methyloxy)-1,1′-biphenyl-4-yl)methyl)oxy)-2,2-dimethyl-2,3-dihydro-1H-inden-1-yl)acetic acid or ((1R)-6-(((2-(1,1-dimethylethyl)-2′-fluoro-5′-(methyloxy)-1,1′-biphenyl-4-yl)methyl)oxy)-2,2-dimethyl-2,3-dihydro-1H-inden-1-yl)acetic acid] |
| 1000 to 10000 | C=CC(C)(C)[C@H](O)c1cc(COc2ccc3c(c2)[C@@H]([C@@H](C)C(=O)O)CC3)ccc1-c1cc(OC)ccc1F (single isomer, unassigned) [Example 28, 2-((1R)-6-(((2′-Fluoro-2-((1S)-1-hydroxy-2,2-dimethyl-3-butenyl)-5′-(methyloxy)-1,1′-biphenyl-4-yl)methyl)oxy)-2,3-dihydro-1H-inden-1-yl)propanoic acid or stereoisomer thereof] |
| 1000 to 10000 | COc1cccc(-c2ccc(COc3ccc4c(c3)[C@@H]([C@@H](C)C(=O)O)CC4)cc2C(C)(C)C)c1 (single isomer, unassigned) [Example 26, 2-((1R)-6-(((2-(1,1-dimethylethyl)-3′-(methyloxy)-1,1′-biphenyl-4-yl)methyl)-oxy)-2,3-dihydro-1H-inden-1-yl)propanoic acid or stereoisomer thereof] |
| 100 to 1000 | COc1ccc(F)c(-c2ccc(COc3ccc4c(c3)[C@H]([C@@H](C)C(=O)O)CC4)cc2C(C)(C)C)c1 [Example 13] |
